# Results published in patent publication US5565448A, “Medicament” (SmithKline Beecham Corporation, priority 1994, dated 1996).
# Key:
# TNF = assay: Endotoxic shock model: TNF production and survival in endotoxin-treated rats; assay type: in vivo, rat
# Source text: 6, 1991 and in Hanna, Patent Cooperation Treaty Application Number WO 90/15534, published Dec. 27, 1990.
# [1] = tested on: rat cerebellar granule cells; assay: Inhibition of glutamate-induced neurotoxicity in rat cerebellar granule cells; assay type: cell-based
# Source text: The effect of compounds of Formula (I) in this assay is examined using the protocol in Lysko, et al, Brain Research, 499:258 (1989).
# [2] = tested on: angiotensin II pressor response; assay: Inhibition of pressor response to angiotensin II in conscious rats; assay type: in vivo; details: Rattus norvegicus, intravenous, read-out: ED50, dose producing 50% inhibition of the control response to angiotensin II
# Protocol: Rats are prepared with indwelling femoral arterial and venous catheters and a stomach tube (Gellai, et al., Kidney Int. 15:419, 1979). Two to three days following surgery the rats are placed in restrainers and blood pressure is continuously monitored from the arterial catheter with a pressure transducer and recorded on a polygraph. The change in mean arterial pressure in response to intravenous injections of […] angiotensin II is compared at various time points prior to and following the administration of the compounds intravenously at doses of 0.1 to 300 mg/kg. The dose of compound needed to produce 50% inhibition of the control response to angiotensin II (ED50) is used to estimate the potency of the compounds. The ED50 of compound B is about 30 mg/kg.
# platelets = assay: Inhibition of PDBu-induced serotonin release from platelets; assay type: cell-based
# Source text: The effect of compounds of Formula (I) in this assay is examined using the protocol in Sano, et al., J. Biol. Chem., 258:2010 (1983).
# HIV-infected cells = assay: HIV syncytial assay; assay type: cell-based; details: syncytial co-cultivation assay
# Protocol: Chronically infected cells are employed as cell fusion centers in a rapid syncytial co-cultivation assay with uninfected […] target cells. Syncytia develop overnight, in contrast to the 3 to 7 days required for the cytopathic effect to occur in similar cultures infected with cell-free virus preparations. Inhibition of fusion by soluble CD4 and other potential anti-HIV compounds is assessed using the assay described by Truneh, et al., Cellular Immunology, 131:98 (1990).
# [3] = tested on: mean arterial blood pressure; assay: Antihypertensive activity in conscious spontaneously hypertensive (SHR) rats; assay type: in vivo; details: Rattus norvegicus, intravenous, read-out: ED25, dose needed to reduce mean arterial pressure by 25 mm Hg
# Protocol: The antihypertensive activity of the compounds is measured by their ability to reduce mean arterial blood pressure in conscious, spontaneously hypertensive (SHR) rats. The animals are prepared with indwelling vascular catheters are described above (A) for the administration of compounds and direct recording of blood pressure. After complete recovery from surgery (4-5 days), the rats are placed into retainers to which they have become accustomed. Mean arterial pressure is recorded continuously prior to and following the intravenous administration of compounds. The dose of compound needed to reduce mean arterial pressure by 25 mm Hg (ED25) is used as an estimate of potency. The ED25 for compound B is about 15mg/kg.
# hindpaw inflammation = assay: Adjuvant-induced arthritis in Lewis rats; assay type: in vivo; details: Rattus norvegicus, ip; AA Lewis rats, daily intraperitoneal administration; read-out: ED50, suppression of hindpaw inflammation
# Protocol: Adjuvant-induced arthritis (AA) was produced in Lewis rats by a single intradermal injection of 0.75 mg of Mycobacterium butyricum in light paraffin oil, into the base of the tail. The adjuvant arthritis occurs after a delay of approximately 10 days and is characterized by inflammation of the hindpaws. In prophylatic studies, compounds were administered daily for 5 days, beginning on the sixth day after adjuvant injection. Hindpaw volumes were measured plethysmographically on days 14, 17 and 20. [formula]
# Daily intraperitoneal administration of compound B to AA rats produced a marked, dose related suppression of hindpaw inflammation with an ED50 of <10 mg/kg.
# Jurkat cells = assay: Inhibition of PHA and ionophore-induced IL-2 production in Jurkat cells; assay type: cell-based; details: Homo sapiens, IL-2 ELISA
# Protocol: IL-2 produced in response to PHA and ionophore in the absence or presence of compound B is assayed by an ELISA kit purchased from Advanced Magnetics, Cambridge, MA (Human 1L-2-specific ELISA). The procedure is described by Moriya, N., Journal of Immunoassay, 8:131 (1987) and Robb, R., Hunam, J., Methods in Enzymology: Immunochemical Techniques, Section H (G.Disagato, J. Langone, and H. vanVanakis, eds.: Academic Press, N.Y., vol. 116, p. 493. 1985).
# rabbit aortic strip = assay: Inhibition of PDBu-induced contraction of rabbit aortic strip; assay type: cell-based; details: Oryctolagus cuniculus; PDBu as agonist
# Source text: The effect of compounds of Formula (I) in this assay is examined using the protocol in Ohlstein, et al., J. Pharm. Exp. Ther., 250:548 (1989), except PDBu and compound B are substituted in place of the agonist and antagonist, respectively, therein described.
compound,measurement,setting,value
"NC1=NC(=O)/C(=C2\CCNC(=O)c3[nH]c(Br)cc32)N1 [Compound B, 4-(2-amino-4-oxo-2-imidazolin-5-ylidene)-2-bromo-4,5,6,7-tetrahydropyrrolo(2,3-c)azepine-8-one]",Inhibition of the production of TNF,TNF,inhibited the production of TNF
same,Survival rate of animals with endotoxic shock,TNF,increased the survival rate
same,IC50,[1],~600 nM
same,ED50,[2],~30 mg/kg
same,Inhibition of PDBu-induced serotonin release from platelets,platelets,showed inhibition
same,"Inhibition of fusion of HIV-infected cells to CD4-positive, uninfected cells",HIV-infected cells,inhibited the fusion
same,ED (25 mm Hg),[3],~15 mg/kg
same,ED50,hindpaw inflammation,< 10 mg/kg
same,IC50,Jurkat cells,~2000 nM
same,IC50,rabbit aortic strip,500 to 800 nM
